Experimental data reported in ChEMBL document CHEMBL1201862, “PubChem BioAssay data set” (2004).
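Grown in 96-well plates, cells were treated for 48 hours with each compound at five concentrations. Insufficient inhibition: endpoint recorded as highest concentration tested. The concentration for 50% growth inhibition is given as GI50.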 The source made the active and inactive calls. Cut-off read from the data, not from the text of the source: active = GI50 up to about 1.1 µM and inactive = higher.

Columns and labels:
Experiment in all cases: NCI anticancer screen, dose series, 48 h
KM-20L2 = test system: KM-20L2
LXFL 529 = test system: LXFL 529
M19-MEL = test system: M19-MEL
SNB-78 = test system: SNB-78
DMS-114 = test system: DMS-114
DLD-1 = test system: DLD-1
XF498 = test system: XF498
HOP-18 = test system: HOP-18
RXF 631 = test system: RXF 631

Measured: GI50

O=C(Nc1cc(Cl)c(Cl)cc1Cl)C(=O)C(C(=O)c1ccc(Cl)c(Cl)c1)C1OC(=O)c2ccccc21 (configuration not stated)
inactive: KM-20L2 17.7 µM | LXFL 529 10.9 µM | M19-MEL 17.6 µM | SNB-78 31.8 µM | DMS-114 13.7 µM | DLD-1 8.47 µM

CC(C)(C)C1=Nc2c(Br)cc(C(C)(C)C)cc2C(C(F)(F)F)(C(F)(F)F)O1
inactive: KM-20L2 > 100 µM | LXFL 529 46.7 µM | M19-MEL 72.6 µM | XF498 19 µM | SNB-78 > 100 µM | DMS-114 31.6 µM | DLD-1 > 100 µM

COc1ccc(NC(=O)CC/C(CC(=O)C(C)(C)C)=N\NC(=O)C(N)=O)cc1
inactive: KM-20L2 > 100 µM | LXFL 529 79.4 µM | M19-MEL > 100 µM | DMS-114 > 100 µM | DLD-1 > 100 µM

N#C/C(=C/c1ccc2c(c1)OCO2)C(=O)c1ccccc1
inactive: HOP-18 > 100 µM | KM-20L2 > 100 µM | LXFL 529 > 100 µM | M19-MEL > 100 µM | XF498 > 100 µM | SNB-78 > 100 µM | DLD-1 > 100 µM

COC(=O)C1CCCC2(C1)OCCO2 (configuration not stated)
inactive: HOP-18 > 100 µM | KM-20L2 > 100 µM | LXFL 529 > 100 µM | RXF 631 > 100 µM | M19-MEL > 100 µM | SNB-78 > 100 µM | DMS-114 > 100 µM | DLD-1 > 100 µM

Cc1ccc(S(=O)(=O)N/N=C(/CC(=O)c2c(C)[n+]([O-])c3ccccc3[n+]2[O-])C(=O)Nc2ccc(C)c(C)c2)cc1
inactive: HOP-18 > 100 µM | KM-20L2 > 100 µM | LXFL 529 > 100 µM | RXF 631 > 100 µM | M19-MEL 17.9 µM | SNB-78 > 100 µM | DMS-114 19.6 µM | DLD-1 > 100 µM

Nc1nc(Cl)cc(NCC(O)CO)n1 (configuration not stated)
inactive: HOP-18 > 100 µM | KM-20L2 > 100 µM | LXFL 529 > 100 µM | M19-MEL > 100 µM | XF498 > 100 µM | SNB-78 > 100 µM | DMS-114 > 100 µM | DLD-1 > 100 µM

Cn1cc(C(=O)c2ccccc2)c2ccccc2c1=O
inactive: LXFL 529 89.3 µM | M19-MEL > 100 µM | XF498 > 100 µM | DMS-114 > 100 µM | DLD-1 > 100 µM

O=C1C=CC(=O)c2ccc(=O)ccc21
inactive: HOP-18 19.4 µM | KM-20L2 22.2 µM | LXFL 529 2.54 µM | RXF 631 14.4 µM | M19-MEL 7.55 µM | SNB-78 25.9 µM | DMS-114 9.16 µM | DLD-1 4.34 µM

O=C1c2ccccc2C2(O)N(c3ccccc3)C(=S)N(c3ccccc3)C12O (configuration not stated)
inactive: HOP-18 > 100 µM | KM-20L2 > 100 µM | LXFL 529 > 100 µM | RXF 631 > 100 µM | M19-MEL > 100 µM | SNB-78 > 100 µM | DMS-114 > 100 µM | DLD-1 > 100 µM

Cc1ccccc1/C=C/C(=O)c1ccccc1
inactive: KM-20L2 17.7 µM | LXFL 529 21.6 µM | RXF 631 19.4 µM | M19-MEL 25 µM | XF498 17.1 µM | SNB-78 19.3 µM | DMS-114 20.9 µM | DLD-1 22.4 µM

O=C(CC1C(=O)Nc2ccccc2S1(=O)=O)Nc1ccc(Cl)cc1 (configuration not stated)
inactive: KM-20L2 > 100 µM | LXFL 529 22.9 µM | RXF 631 27.6 µM | M19-MEL 24 µM | XF498 11.7 µM | SNB-78 21.7 µM | DMS-114 13.4 µM | DLD-1 33.5 µM

Cc1cc2c(=O)c(C)n[nH]c2c(C#N)c1C
inactive: HOP-18 > 100 µM | KM-20L2 > 100 µM | LXFL 529 > 100 µM | RXF 631 > 100 µM | M19-MEL > 100 µM | XF498 > 100 µM | DLD-1 > 100 µM

CCOC(=O)C1([Se]c2ccccc2)CCCC1=O (configuration not stated)
inactive: HOP-18 20.1 µM | KM-20L2 36.6 µM | LXFL 529 14.8 µM | RXF 631 66.5 µM | M19-MEL 19.7 µM | XF498 16.1 µM | SNB-78 24 µM | DMS-114 3.83 µM | DLD-1 16.6 µM

COC1CC(O)C(OC(=O)c2ccccc2)C(C)O1 (configuration not stated)
inactive: HOP-18 > 100 µM | KM-20L2 > 100 µM | RXF 631 > 100 µM | M19-MEL > 100 µM | XF498 > 100 µM | SNB-78 > 100 µM | DLD-1 > 10 µM

COc1ccc(-c2cc(=O)c3cc(C)c(C)c(C(=O)O)c3o2)cc1
inactive: KM-20L2 > 100 µM | LXFL 529 > 100 µM | RXF 631 > 100 µM | M19-MEL > 100 µM | XF498 > 100 µM | SNB-78 > 100 µM | DMS-114 15.3 µM | DLD-1 > 100 µM

CC1(c2cccc(C3CC4(CCC3=O)OCCCCO4)c2)OCCO1 (configuration not stated)
inactive: HOP-18 > 100 µM | KM-20L2 > 100 µM | LXFL 529 > 100 µM | M19-MEL > 100 µM | SNB-78 > 100 µM | DMS-114 7.96 µM | DLD-1 > 100 µM

CN1CCc2cc3c4cc2C1Cc1ccc(cc1)Oc1cc(ccc1O)CC1c2c(cc(O)c(c2O4)O3)CCN1C (configuration not stated)
inactive: HOP-18 3.52 µM | KM-20L2 2.9 µM | LXFL 529 2.53 µM | RXF 631 1.94 µM | M19-MEL 1.78 µM | XF498 1.69 µM | SNB-78 5.66 µM | DMS-114 2.05 µM | DLD-1 3.3 µM

CCc1c(OC(C)=O)c2c(NC3OCC(OC(C)=O)C(OC(C)=O)C3OC(C)=O)nc(SC)nc2oc1=O (configuration not stated)
inactive: HOP-18 > 100 µM | KM-20L2 > 100 µM | LXFL 529 > 100 µM | RXF 631 > 100 µM | M19-MEL > 100 µM | XF498 > 100 µM | SNB-78 > 100 µM | DLD-1 > 100 µM

COc1ccc(OC)c2cc(C3(C)SCCCS3)ccc12
inactive: HOP-18 > 100 µM | KM-20L2 81.7 µM | LXFL 529 > 100 µM | M19-MEL > 100 µM | XF498 61.7 µM | SNB-78 45.9 µM | DMS-114 92.5 µM | DLD-1 > 100 µM

O=C1CC(c2n[nH]c3ccccc23)C(=O)N1c1ccccc1 (configuration not stated)
inactive: HOP-18 > 100 µM | KM-20L2 > 100 µM | LXFL 529 > 95.9 µM | RXF 631 > 100 µM | M19-MEL > 100 µM | XF498 > 100 µM | SNB-78 > 100 µM | DMS-114 > 100 µM | DLD-1 > 100 µM

O=C(NC1CC1)c1c(O)[nH]c(=S)[nH]c1=O
inactive: HOP-18 > 100 µM | KM-20L2 > 100 µM | LXFL 529 > 100 µM | RXF 631 > 100 µM | M19-MEL > 100 µM | SNB-78 > 100 µM | DMS-114 > 100 µM | DLD-1 > 100 µM

C=C1C(=O)C23CC1CCC2C12CO[C@@H]4OCC(C)(CC[C@@H]1OC3=O)C42 (some centres not stated)
inactive: HOP-18 6.41 µM | KM-20L2 5.38 µM | LXFL 529 2.78 µM | RXF 631 12.1 µM | M19-MEL 6.53 µM | XF498 1.92 µM | SNB-78 2.3 µM | DMS-114 1.9 µM | DLD-1 3.52 µM

COc1ncn(C2C=C(CO)C(O)C2O)c(=O)n1 (configuration not stated)
inactive: HOP-18 > 100 µM | KM-20L2 > 100 µM | LXFL 529 > 100 µM | SNB-78 > 100 µM | DMS-114 > 100 µM | DLD-1 > 100 µM

CCN(CC)CCCNC(=O)c1ccc([N+](=O)[O-])cc1O
inactive: KM-20L2 > 100 µM | LXFL 529 > 100 µM | RXF 631 > 100 µM | SNB-78 > 100 µM | DMS-114 > 100 µM | DLD-1 > 100 µM

O=C(N/N=C/c1cccc(F)c1)c1ccncc1
inactive: HOP-18 > 100 µM | KM-20L2 > 100 µM | LXFL 529 > 100 µM | XF498 > 100 µM | DMS-114 > 100 µM | DLD-1 > 100 µM

COC(=O)Nc1nc2cc(C(=O)c3cccs3)ccc2[nH]1 [NOCODAZOLE]
active: KM-20L2 < 0.0132 µM | LXFL 529 0.0532 µM | RXF 631 0.07 µM | M19-MEL 0.195 µM | XF498 0.0314 µM | SNB-78 0.0322 µM | DMS-114 0.0424 µM | DLD-1 0.0344 µM
inactive: HOP-18 32.8 µM
